Reference: patent publication US20020137781A1, “Preparation and use of enantiomer-pure 2,4-disubstituted oxazolines” (priority 1999, published 2002)
Several values for one entry are separate records, joined by “and”; a condition that tells them apart may be missing. Equal entries are not always repeated.

Tested on: Dermanyssus gallinae
Test: Comparative in vitro effect on Dermanyssus gallinae
Settings: for Type of activity: at the EC100 of the same table line; for EC100 (minimum dosage to reach 100% mortality): fed adult female mites, evaluated after 5 days
Method: 15 fed adult female mites of the genus Dermanyssus gallinae fixed on a plastic adhesive film are brought into contact with 50 μl of an aqueous suspension or emulsion of the test substance. The test is carried out with concentrations of 32, 10, 3.2, 1.0, 0.32 to 0.1 ppm. After drying, the film is stuck onto a glass disc. This creates a kind of air bubble around each mite, the lower surface of which is formed by the glass disc and the upper surface by a bulging of the adhesive film. This bubble contains sufficient air for the mite to avoid suffocating. After 5 days, the effect of the test substance is evaluated with the aid of a stereo-microscope by assessing the effect on mortality, egg deposition, egg quality, hatching rate, pupation rate, and development of protonymphs according to the following 4 criteria:
1. if 9 to 10 mites are dead, this indicates a lethal effect (M);
3. if 2 or more mites survive and produce eggs, but no larvae hatch from these eggs and no protonymphs develop, this indicates a development-inhibiting effect (H);
4. if 2 or more mites survive and lay the usual number of normal eggs, from which larvae hatch and develop into protonymphs, this indicates no activity.

| Structure (SMILES) | concentration that completely inhibits the development of protonymphs (after 5 days) | type of effect (points 1-4) (after 5 days) | Type of activity | EC100 (minimum dosage to reach 100% mortality) | concentration to reach an activity of type 1 (activity of type 1) | concentration to reach a considerable efficacy (only activity of type 3) (activity of type 3) | Type of activity (listed as Enantiomer B) | type of effect (points 1-4) at concentrations up to 10 ppm (concentrations up to 10 ppm) | EC100 (minimum dosage to reach 100% mortality) (listed as Enantiomer B) |
| --- | --- | --- | --- | --- | --- | --- | --- | --- | --- |
| Fc1cccc(F)c1C1=NC(c2ccc(-c3ccc(C(F)(F)F)cc3)cc2)CO1 (racemic) [Racemate, 2-(2,6-difluorophenyl)-4-(4′-trifluoromethylbiphenyl-4-yl)-4,5-dihydrooxazole, reference compound] | ≥ 0.02 ppm | 1 | 1 | 0.2 ppm |  |  |  |  |  |
| Fc1cccc(F)c1C1=NC(c2ccc(-c3ccc(C(F)(F)F)cc3)cc2)CO1 (single isomer, unassigned) [1.2, 2-(2,6-difluoro-phenyl)-4-(4′-trifluoromethylbiphenyl-4-yl)-4,5-dihydro-oxazole] |  |  |  |  | at least 32 ppm | at least 20 ppm | 3) and 1 | 4 | 20.0 ppm and 32.0 ppm |
